{"source": "patent US20070275977A1", "about": "“N-OXIDES OF PYRIDYLMETHYL -PIPERAZINE AND -PIPERIDINE DERIVATIVES” (priority 2006, published 2007)", "key": {"Serotonin-5-HT1A": {"molecular_target": "T1, Serotonin-5-HT1A (Homo sapiens, UniProt P08908)", "T1 sequence (P08908 1-422)": "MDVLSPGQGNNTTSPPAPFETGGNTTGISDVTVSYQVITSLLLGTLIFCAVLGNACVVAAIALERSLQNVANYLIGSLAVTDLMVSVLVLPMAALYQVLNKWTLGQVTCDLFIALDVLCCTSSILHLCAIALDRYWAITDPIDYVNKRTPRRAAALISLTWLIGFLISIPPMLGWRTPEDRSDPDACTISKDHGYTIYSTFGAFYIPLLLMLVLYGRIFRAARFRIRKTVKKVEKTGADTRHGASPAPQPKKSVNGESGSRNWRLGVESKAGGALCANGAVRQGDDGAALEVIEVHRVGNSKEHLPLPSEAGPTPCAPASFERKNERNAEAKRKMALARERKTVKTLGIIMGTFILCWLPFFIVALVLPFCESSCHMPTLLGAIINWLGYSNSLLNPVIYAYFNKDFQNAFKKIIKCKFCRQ", "assay": "In vitro receptor affinity, Serotonin-5-HT1A", "assay_type": "binding", "details": "radioligand [3H]-8-OH-DPAT, read-out: K1 (in vitro receptor affinity)", "experimental": "(§1) ln vitro affinity for neurotransmitter receptors: The binding data collected below were either obtained by CE REP (128, rue Danton, 92500 Rueil-Malmaison, France) or at Solvay Pharmaceuticals B.V. (C. J. van Houtenlaan 36, 1381 CP Weesp, The Netherlands), using well documented standard procedures. The affinities for dopamine-D2 and 5-HT1A receptors for instance, were measured as described by Creese (1997) and Gozlan (1983) respectively."}, "Serotonin-5-HT1D": {"molecular_target": "Serotonin-5-HT1D", "assay": "In vitro receptor affinity, Serotonin-5-HT1D", "assay_type": "binding", "details": "bovine, radioligand [3H]-serotonin; read-out: K1 (in vitro receptor affinity)", "experimental": "as §1"}, "Serotonin-5-HT2C": {"molecular_target": "Serotonin-5-HT2C (Homo sapiens, UniProt P28335)", "sequence (P28335 33-458)": "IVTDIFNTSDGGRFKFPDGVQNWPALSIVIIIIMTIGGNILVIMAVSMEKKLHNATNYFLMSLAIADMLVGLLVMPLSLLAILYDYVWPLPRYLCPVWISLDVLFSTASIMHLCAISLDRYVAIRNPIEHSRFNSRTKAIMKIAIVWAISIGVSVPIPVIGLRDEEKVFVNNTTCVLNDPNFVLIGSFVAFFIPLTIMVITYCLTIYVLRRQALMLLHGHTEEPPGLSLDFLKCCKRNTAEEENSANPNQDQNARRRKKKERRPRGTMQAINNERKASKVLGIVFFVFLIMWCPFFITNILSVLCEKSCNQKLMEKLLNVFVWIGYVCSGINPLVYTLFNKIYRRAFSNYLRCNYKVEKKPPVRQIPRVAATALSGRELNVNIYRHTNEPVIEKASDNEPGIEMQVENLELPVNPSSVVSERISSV", "assay": "In vitro receptor affinity, Serotonin-5-HT2C", "assay_type": "binding", "details": "radioligand [125I]-DOI, read-out: K1 (in vitro receptor affinity)", "experimental": "as §1"}, "Serotonin-5-HT3": {"molecular_target": "Serotonin-5-HT3 (Rattus norvegicus, UniProt P35563)", "sequence (P35563 24-483)": "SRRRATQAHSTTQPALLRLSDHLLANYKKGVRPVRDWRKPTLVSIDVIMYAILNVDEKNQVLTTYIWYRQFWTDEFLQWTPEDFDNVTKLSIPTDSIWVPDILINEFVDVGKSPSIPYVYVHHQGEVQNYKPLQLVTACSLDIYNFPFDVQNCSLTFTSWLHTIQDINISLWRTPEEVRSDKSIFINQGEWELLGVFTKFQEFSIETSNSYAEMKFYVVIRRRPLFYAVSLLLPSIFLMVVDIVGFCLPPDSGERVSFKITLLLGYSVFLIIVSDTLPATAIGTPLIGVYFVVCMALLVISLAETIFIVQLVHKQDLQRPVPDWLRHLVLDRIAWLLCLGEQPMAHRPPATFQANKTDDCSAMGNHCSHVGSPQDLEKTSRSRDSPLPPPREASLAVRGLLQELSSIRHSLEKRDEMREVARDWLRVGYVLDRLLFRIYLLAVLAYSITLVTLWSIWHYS", "assay": "In vitro receptor affinity, Serotonin-5-HT3", "assay_type": "binding", "details": "radioligand [3H]-GR 38032F, read-out: K1 (in vitro receptor affinity)", "experimental": "as §1"}, "Serotonin-5-HT6": {"molecular_target": "Serotonin-5-HT6 (Homo sapiens, UniProt P50406)", "sequence (P50406 whole entry)": "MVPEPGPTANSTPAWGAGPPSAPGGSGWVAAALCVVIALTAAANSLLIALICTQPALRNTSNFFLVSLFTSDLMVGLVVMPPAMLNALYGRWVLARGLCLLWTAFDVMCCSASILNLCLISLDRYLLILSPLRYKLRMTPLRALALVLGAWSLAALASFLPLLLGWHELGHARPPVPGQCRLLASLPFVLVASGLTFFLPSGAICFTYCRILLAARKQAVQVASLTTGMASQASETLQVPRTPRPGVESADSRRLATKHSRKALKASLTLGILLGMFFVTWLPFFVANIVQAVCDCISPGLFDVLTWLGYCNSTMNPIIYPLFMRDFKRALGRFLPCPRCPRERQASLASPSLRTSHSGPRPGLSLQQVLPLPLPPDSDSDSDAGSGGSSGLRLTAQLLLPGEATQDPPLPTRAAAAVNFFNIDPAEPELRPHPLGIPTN", "assay": "In vitro receptor affinity, Serotonin-5-HT6", "assay_type": "binding", "details": "radioligand [3H]-LSD, read-out: K1 (in vitro receptor affinity)", "experimental": "as §1"}, "Serotonin-5-HT7": {"molecular_target": "Serotonin-5-HT7 (Homo sapiens, UniProt P34969)", "sequence (P34969 whole entry)": "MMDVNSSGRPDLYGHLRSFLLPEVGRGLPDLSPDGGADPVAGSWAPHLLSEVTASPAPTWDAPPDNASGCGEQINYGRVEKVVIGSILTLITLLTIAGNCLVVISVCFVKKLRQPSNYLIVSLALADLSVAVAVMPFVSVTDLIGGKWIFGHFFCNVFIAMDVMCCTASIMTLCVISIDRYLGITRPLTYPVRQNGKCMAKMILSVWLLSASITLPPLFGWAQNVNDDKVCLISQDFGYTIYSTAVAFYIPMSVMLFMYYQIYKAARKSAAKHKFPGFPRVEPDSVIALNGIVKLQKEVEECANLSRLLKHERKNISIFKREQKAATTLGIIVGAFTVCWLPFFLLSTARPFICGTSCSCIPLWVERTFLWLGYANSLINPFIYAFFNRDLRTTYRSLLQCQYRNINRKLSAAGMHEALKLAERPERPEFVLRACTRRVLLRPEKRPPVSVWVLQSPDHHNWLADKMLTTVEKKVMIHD", "assay": "In vitro receptor affinity, Serotonin-5-HT7", "assay_type": "binding", "details": "radioligand [3H]-LSD, read-out: K1 (in vitro receptor affinity)", "experimental": "as §1"}, "5-HT reuptake": {"molecular_target": "5-HT reuptake (Homo sapiens, UniProt P31645)", "sequence (P31645 whole entry)": "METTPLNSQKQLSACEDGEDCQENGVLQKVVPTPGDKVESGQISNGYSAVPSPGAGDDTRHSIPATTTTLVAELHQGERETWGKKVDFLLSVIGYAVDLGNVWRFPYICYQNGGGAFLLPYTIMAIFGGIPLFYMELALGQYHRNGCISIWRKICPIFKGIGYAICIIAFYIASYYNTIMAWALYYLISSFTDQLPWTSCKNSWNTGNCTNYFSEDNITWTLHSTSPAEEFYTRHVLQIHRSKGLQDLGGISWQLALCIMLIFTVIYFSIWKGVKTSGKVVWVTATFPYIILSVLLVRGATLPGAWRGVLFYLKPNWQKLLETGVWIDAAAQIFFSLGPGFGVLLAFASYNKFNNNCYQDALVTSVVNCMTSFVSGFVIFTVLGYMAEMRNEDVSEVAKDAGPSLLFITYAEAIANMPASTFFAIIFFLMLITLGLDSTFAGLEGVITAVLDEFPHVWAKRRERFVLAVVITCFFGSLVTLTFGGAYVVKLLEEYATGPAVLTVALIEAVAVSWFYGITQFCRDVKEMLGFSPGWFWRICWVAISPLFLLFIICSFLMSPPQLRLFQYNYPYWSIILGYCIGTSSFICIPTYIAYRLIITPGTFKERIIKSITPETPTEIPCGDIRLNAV", "assay": "In vitro receptor affinity, 5-HT reuptake", "assay_type": "binding", "details": "radioligand [3H]-paroxetine, read-out: K1 (in vitro receptor affinity)", "experimental": "as §1"}, "α1-adrenergic": {"molecular_target": "α1-adrenergic", "assay": "In vitro receptor affinity, α1-adrenergic", "assay_type": "binding", "details": "rat, radioligand [3H]-prazosin; read-out: K1 (in vitro receptor affinity)", "experimental": "as §1"}, "α2-adrenergic": {"molecular_target": "α2-adrenergic", "assay": "In vitro receptor affinity, α2-adrenergic", "assay_type": "binding", "details": "rat, radioligand [3H]-RX 821002; read-out: K1 (in vitro receptor affinity)", "experimental": "as §1"}, "Histamine-H1": {"molecular_target": "Histamine-H1 (Homo sapiens, UniProt P35367)", "sequence (P35367 whole entry)": "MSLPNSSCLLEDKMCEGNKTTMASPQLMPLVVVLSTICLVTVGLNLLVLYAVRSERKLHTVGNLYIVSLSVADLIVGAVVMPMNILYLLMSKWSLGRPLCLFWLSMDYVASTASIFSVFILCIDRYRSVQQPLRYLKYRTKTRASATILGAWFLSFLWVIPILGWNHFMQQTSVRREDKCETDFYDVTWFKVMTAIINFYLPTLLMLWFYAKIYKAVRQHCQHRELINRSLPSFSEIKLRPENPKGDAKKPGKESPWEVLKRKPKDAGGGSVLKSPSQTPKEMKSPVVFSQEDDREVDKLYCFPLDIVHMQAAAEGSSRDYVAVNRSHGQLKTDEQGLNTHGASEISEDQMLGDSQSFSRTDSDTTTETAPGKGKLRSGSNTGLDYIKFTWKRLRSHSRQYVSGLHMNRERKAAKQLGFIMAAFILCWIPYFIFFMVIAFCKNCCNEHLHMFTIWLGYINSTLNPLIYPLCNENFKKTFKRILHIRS", "assay": "In vitro receptor affinity, Histamine-H1", "assay_type": "binding", "details": "radioligand [3H]-pyrilamine, read-out: K1 (in vitro receptor affinity)", "experimental": "as §1"}, "Muscarine-M1": {"molecular_target": "Muscarine-M1 (Homo sapiens, UniProt P11229)", "sequence (P11229 whole entry)": "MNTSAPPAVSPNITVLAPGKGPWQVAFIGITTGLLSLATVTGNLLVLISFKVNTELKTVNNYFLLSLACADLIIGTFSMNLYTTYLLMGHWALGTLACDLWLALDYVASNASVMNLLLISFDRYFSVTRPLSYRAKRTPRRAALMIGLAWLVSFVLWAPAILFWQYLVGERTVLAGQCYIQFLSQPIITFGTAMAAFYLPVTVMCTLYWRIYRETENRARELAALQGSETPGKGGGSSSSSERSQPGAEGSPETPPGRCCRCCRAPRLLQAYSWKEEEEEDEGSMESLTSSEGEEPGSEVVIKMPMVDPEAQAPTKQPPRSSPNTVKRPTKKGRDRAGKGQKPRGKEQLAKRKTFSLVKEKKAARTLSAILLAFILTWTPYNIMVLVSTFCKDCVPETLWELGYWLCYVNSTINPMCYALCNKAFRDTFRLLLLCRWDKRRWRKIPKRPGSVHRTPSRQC", "assay": "In vitro receptor affinity, Muscarine-M1", "assay_type": "binding", "details": "radioligand [3H]-pirenzepine, read-out: K1 (in vitro receptor affinity)", "experimental": "as §1"}, "Muscarine-M4": {"molecular_target": "Muscarine-M4 (Homo sapiens, UniProt P08173)", "sequence (P08173 whole entry)": "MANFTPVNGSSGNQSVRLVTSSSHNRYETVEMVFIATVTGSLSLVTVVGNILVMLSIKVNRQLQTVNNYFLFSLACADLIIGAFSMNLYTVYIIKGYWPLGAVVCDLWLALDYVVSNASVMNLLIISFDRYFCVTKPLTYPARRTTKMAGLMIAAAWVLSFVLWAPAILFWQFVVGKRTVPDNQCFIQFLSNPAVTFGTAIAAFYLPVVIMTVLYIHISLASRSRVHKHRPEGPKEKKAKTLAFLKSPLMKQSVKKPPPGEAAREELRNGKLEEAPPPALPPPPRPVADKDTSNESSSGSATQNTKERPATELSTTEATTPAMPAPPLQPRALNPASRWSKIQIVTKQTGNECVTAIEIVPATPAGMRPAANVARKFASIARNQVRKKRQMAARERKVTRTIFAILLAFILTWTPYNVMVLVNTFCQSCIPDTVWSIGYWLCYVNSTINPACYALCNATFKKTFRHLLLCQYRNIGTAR", "assay": "In vitro receptor affinity, Muscarine-M4", "assay_type": "binding", "details": "radioligand [3H]-4-DAMP, read-out: K1 (in vitro receptor affinity)", "experimental": "as §1"}, "Muscarine-M5": {"molecular_target": "Muscarine-M5 (Homo sapiens, UniProt P08912)", "sequence (P08912 whole entry)": "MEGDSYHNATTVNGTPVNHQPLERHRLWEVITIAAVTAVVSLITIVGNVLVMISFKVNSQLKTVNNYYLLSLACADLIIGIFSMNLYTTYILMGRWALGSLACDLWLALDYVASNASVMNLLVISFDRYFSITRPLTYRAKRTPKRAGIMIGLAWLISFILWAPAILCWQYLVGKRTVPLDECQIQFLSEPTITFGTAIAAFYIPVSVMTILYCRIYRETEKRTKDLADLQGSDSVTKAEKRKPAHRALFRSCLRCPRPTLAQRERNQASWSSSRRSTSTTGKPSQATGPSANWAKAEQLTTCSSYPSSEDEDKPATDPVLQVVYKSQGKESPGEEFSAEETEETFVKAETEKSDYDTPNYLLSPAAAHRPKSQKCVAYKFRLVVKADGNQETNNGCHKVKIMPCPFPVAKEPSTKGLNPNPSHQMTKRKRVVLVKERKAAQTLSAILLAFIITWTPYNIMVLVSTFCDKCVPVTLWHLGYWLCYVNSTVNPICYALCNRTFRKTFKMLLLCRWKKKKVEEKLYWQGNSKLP", "assay": "In vitro receptor affinity, Muscarine-M5", "assay_type": "binding", "details": "radioligand [3H]-4-DAMP, read-out: K1 (in vitro receptor affinity)", "experimental": "as §1"}, "μ-opiate": {"molecular_target": "μ-opiate (Rattus norvegicus, UniProt P33535)", "assay": "In vitro receptor affinity, μ-opiate", "assay_type": "binding", "details": "radioligand [3H]-DAMGO, read-out: K1 (in vitro receptor affinity)", "experimental": "as §1"}, "human D2 receptors": {"molecular_target": "T2, human D2 receptors (Homo sapiens, UniProt P14416)", "T2 construct": "expressed in transfected cells; host or cells: CHO", "T2 sequence (P14416 whole entry)": "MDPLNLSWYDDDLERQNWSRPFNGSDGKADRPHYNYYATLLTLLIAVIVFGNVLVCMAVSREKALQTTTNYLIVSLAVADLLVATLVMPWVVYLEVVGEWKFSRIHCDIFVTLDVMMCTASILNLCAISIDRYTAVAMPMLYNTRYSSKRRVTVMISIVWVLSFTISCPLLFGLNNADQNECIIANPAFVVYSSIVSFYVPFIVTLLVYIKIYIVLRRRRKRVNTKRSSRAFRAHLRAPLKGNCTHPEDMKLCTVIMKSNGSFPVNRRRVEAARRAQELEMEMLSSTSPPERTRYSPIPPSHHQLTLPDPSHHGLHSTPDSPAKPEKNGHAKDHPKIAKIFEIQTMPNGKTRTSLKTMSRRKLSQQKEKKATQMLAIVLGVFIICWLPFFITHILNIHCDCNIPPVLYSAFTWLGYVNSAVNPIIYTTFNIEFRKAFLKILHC", "assay": "In vitro functional antagonism at D2 receptors, adenylate cyclase in CHO cell-lines", "assay_type": "cell-based", "details": "CHO cell-lines expressing cloned receptor; read-out: Antagonism human D2 receptors, pA2 (converted)", "experimental": "In vitro (ant)agonistic activity at human D2 receptors and 5-HT1A receptors was measured according to the methods described by Solomon (1974) and Weiss (1985) respectively, on the formation of adenylate cyclase in CHO cell-lines expressing these cloned receptors."}, "[1]": {"system": "Apomorphine-induced climbing behaviour in mice", "assay": "Antagonism of apomorphine-induced climbing behaviour in mice", "assay_type": "in vivo", "details": "Mus musculus, po, read-out: Antagon. apomorphine ind. climbing: ED50", "experimental": "(§2) For oral (p.o.) administration: to the desired quantity (0.5-5 mg) of the solid test compound in a glass tube, some glass beads were added and the solid was milled by vortexing for 2 minutes. After addition of 1 ml of a solution of 1% methylcellulose in water and 2% (v/v) of Poloxamer 188 (Lutrol F68), the compound was suspended by vortexing for 10 minutes. The pH was adjusted to 7. Remaining particles in the suspension were further suspended by using an ultrasonic bath.\n(§3) Lower lip retraction, an in vivo animal model for serotonin 5-HT1A receptor agonistic activity, was measured according to the method described by Berendsen (1989); Apomorphine-induced climbing behaviour in mice, an in vivo animal model for dopamine-D2 receptor antagonistic activity, was determined according to the method described by Costall (1978)."}, "Lower lip retraction": {"system": "Lower lip retraction", "assay": "Lower lip retraction", "assay_type": "in vivo", "details": "po; read-out: Lower Lip Retraction: ED50", "experimental": "as §2, §3"}, "[2]": {"assay": "Volume of distribution measured in mice", "assay_type": "in vivo", "details": "for VD in liters per kilograms: measured in mice; for Vd: plasma, calculated for an average person weighing 70 kg from mouse VD", "experimental": "The volume of distribution (VD), also known as the ‘apparent volume of distribution’, is a pharmacological term used to quantify the distribution of a drug throughout the body after oral or parenteral dosing. It is defined as the volume in which the amount of drug would need to be uniformly distributed in to produce the observed concentration (Widmark, 1919).\nThe volume of distribution of SLV313 and its pyridine N-oxide was measured in mice, using the standard procedure well known in the art:\nThe volume of distribution is not a physiological volume, but rather the ratio between the total amount of drug in the body and its concentration in plasma. It is generally accepted that the volume of distribution is more or less the same across species, making it a parameter that, when measured in laboratory animals, has a high predictive value towards man."}}, "data": [{"compound": "[O-][n+]1cc(CN2CCN(c3cccc4c3OCCO4)CC2)cc(-c2ccc(F)cc2)c1", "note": "[pyridine N-oxide, 1-(2,3-dihydro-1,4-benzodioxin-5-yl)-4-[[5-(4-fluorophenyl)-1-oxido-3-pyridinyl]methyl]-piperazine]", "values": [{"measurement": "Ki", "setting": "Serotonin-5-HT1A", "value": 0.0004, "unit": "µM"}, {"measurement": "Ki", "setting": "Serotonin-5-HT1D", "value": 4, "unit": "µM"}, {"measurement": "Ki", "setting": "Serotonin-5-HT2C", "value": "> 10", "unit": "µM"}, {"measurement": "Ki", "setting": "Serotonin-5-HT3", "value": "> 10", "unit": "µM"}, {"measurement": "Ki", "setting": "Serotonin-5-HT6", "value": "> 10", "unit": "µM"}, {"measurement": "Ki", "setting": "Serotonin-5-HT7", "value": 0.1, "unit": "µM"}, {"measurement": "Ki", "setting": "5-HT reuptake", "value": 0.32, "unit": "µM"}, {"measurement": "Ki", "setting": "α1-adrenergic", "value": 1, "unit": "µM"}, {"measurement": "Ki", "setting": "α2-adrenergic", "value": 0.63, "unit": "µM"}, {"measurement": "Ki", "setting": "Histamine-H1", "value": "> 10", "unit": "µM"}, {"measurement": "Ki", "setting": "Muscarine-M1", "value": "> 10", "unit": "µM"}, {"measurement": "Ki", "setting": "Muscarine-M4", "value": "> 10", "unit": "µM"}, {"measurement": "Ki", "setting": "Muscarine-M5", "value": "> 10", "unit": "µM"}, {"measurement": "Ki", "setting": "μ-opiate", "value": 3.2, "unit": "µM"}, {"measurement": "Kb", "setting": "human D2 receptors", "value": 0.000631, "unit": "µM"}, {"measurement": "ED50", "setting": "[1]", "value": 0.9, "unit": "mg/kg"}, {"measurement": "ED50", "setting": "Lower lip retraction", "value": 3, "unit": "mg/kg"}, {"measurement": "VD in liters per kilograms", "setting": "[2]", "value": 1, "unit": "liters per kilograms"}, {"measurement": "Vd", "setting": "[2]", "value": 70, "unit": "L"}]}, {"compound": "Fc1ccc(-c2cncc(CN3CCN(c4cccc5c4OCCO5)CC3)c2)cc1", "note": "[SLV313, 3-[[4-(2,3-dihydro-1,4-benzodioxin-5-yl)-1-piperazinyl]methyl]-5-(4-fluorophenyl)pyridine, reference compound]", "values": [{"measurement": "Ki", "setting": "Serotonin-5-HT1A", "value": 0.0008, "unit": "µM"}, {"measurement": "Ki", "setting": "Serotonin-5-HT1D", "value": 13, "unit": "µM"}, {"measurement": "Ki", "setting": "Serotonin-5-HT2C", "value": "> 1", "unit": "µM"}, {"measurement": "Ki", "setting": "Serotonin-5-HT3", "value": "> 1", "unit": "µM"}, {"measurement": "Ki", "setting": "Serotonin-5-HT6", "value": "> 1", "unit": "µM"}, {"measurement": "Ki", "setting": "Serotonin-5-HT7", "value": 0.063, "unit": "µM"}, {"measurement": "Ki", "setting": "5-HT reuptake", "value": "> 1", "unit": "µM"}, {"measurement": "Ki", "setting": "α1-adrenergic", "value": 0.5, "unit": "µM"}, {"measurement": "Ki", "setting": "α2-adrenergic", "value": "> 1", "unit": "µM"}, {"measurement": "Ki", "setting": "Histamine-H1", "value": "> 1", "unit": "µM"}, {"measurement": "Ki", "setting": "Muscarine-M1", "value": "> 10", "unit": "µM"}, {"measurement": "Ki", "setting": "Muscarine-M4", "value": "> 1", "unit": "µM"}, {"measurement": "Ki", "setting": "Muscarine-M5", "value": "> 1", "unit": "µM"}, {"measurement": "Ki", "setting": "μ-opiate", "value": 8, "unit": "µM"}, {"measurement": "Kb", "setting": "human D2 receptors", "value": 0.000501, "unit": "µM"}, {"measurement": "ED50", "setting": "[1]", "value": 0.5, "unit": "mg/kg"}, {"measurement": "ED50", "setting": "Lower lip retraction", "value": 2.3, "unit": "mg/kg"}, {"measurement": "VD in liters per kilograms", "setting": "[2]", "value": 5, "unit": "liters per kilograms"}, {"measurement": "Vd", "setting": "[2]", "value": 350, "unit": "L"}]}]}
